{"source": "patent US20040171089A1", "about": "“High-throughput screening assay for identifying substances capable of modulating cell survival and/or proliferation” (priority 2001, published 2004)", "key": {"MDA MB 468 cells": {"tested_on": "MDA MB 468 cells", "experiment": "Fura-2 calcium imaging, MDA MB 468 cells", "type": "cell-based, human", "conditions": "for % increase of cytosolic calcium / % increase of cytosolic calcium (peak 340/380 nm fura-2 ratio): MDA 468 cells", "procedure": "Human mammary carcinoma (MDA MB 468) cells were obtained from ATCC, Manassas, Va., USA; catalogue number HTB-132; cells were grown in accordance with the manufacturer's instructions.\n(§1) For calcium imaging experiments cells were plated onto poly-L-lysine coated coverslips (13 mm). Single cell imaging was performed utilizing a MiraCal Imaging facility (Life Science Resources, Cambridge, U.K.) with a Nikon Diaphot-TMD inverted epifluorescence microscope equipped with a ×40 oil immersion objective and Sutter filter wheel. The imager was equipped with a Lambert intensifier 1187 (Life Sciences Resources) providing a ×30 enhancement of the fluorescent signal, thus limiting phototoxicity.\n(§2) Fura-2 acetoxymethyl ester (fura-2 AM) incubations with the cells were performed at 37° C. in a medium containing (in mM): 120 NaCl, 3.5 KCl, 0.4 KH2PO4, 5 NaHCO3, 1.2 Na2SO4, 15 glucose, 1.2 MgCl2, 1 CaCl2, and 20 TES [N-tris(hydroxymethyl) methyl-2-aminoethane sulphonic acid] pH adjusted to 7.4 with NaOH. Typically cells were incubated in 3 μM fura-2 AM for 25 min., which permitted sufficient accumulation of free fura-2 in the cell cytoplasm. Cells were then illuminated alternately at 340 and 380 nm with the emitted 505 nm light being detected by a photomultiplier. Free fura emits maximally when excited at 380 nm, whilst the calcium bound fura has a maximal emission when excited at 340 nm. Thus the ratio of emission when alternately excited at 340/380 nm is a measure of the calcium concentration in equilibrium with the chelator. Changes of intracellular calcium were quantified as the percentage increase of the fluorescent ratio (determined at ˜505 nm) obtained by exciting the test cells alternatively at 340 nm (optimal for calcium bound dye) and 380 nm."}, "MCF-7 cells": {"tested_on": "MCF-7 cells", "experiment": "Fura-2 calcium imaging, MCF-7 cells", "type": "cell-based, human", "conditions": "10 μM", "procedure": "as §1\nas §2, with “Free fura emits maximally when excited at 380 nm, whilst the calcium bound fura has a maximal emission when excited at 340 nm. Thus the ratio of emission when alternately excited at 340/380 nm is a measure of the calcium concentration in equilibrium with the chelator.” left out"}, "[1]": {"tested_on": "cerebellar granule neurones", "experiment": "Fura-2 calcium imaging, cerebellar granule neurones", "type": "cell-based, rat", "conditions": "3 μM; cerebellar granule cells", "procedure": "Cerebellar granule cells were prepared from 6-7 day post natal rats as previously described (see Courtney, M. J., Lambert, J. J. and Nicholls, D. G. [1990] J. Neuroscience 10: 3873-3879).\nas §1\nFura-2 acetoxymethyl ester (fura-2 AM) incubations with the cells were performed at 37° C. in a medium containing (in mM): 120 NaCl, 3.5 KCl, 0.4 KH2PO4, 5 NaHCO3, 1.2 Na2SO4, 15 glucose, 1.2 MgCl2, 1 CaCl2, and 20 TES [N-tris(hydroxymethyl) methyl-2-aminoethane sulphonic acid] pH adjusted to 7.4 with NaOH. […] Cells were then illuminated alternately at 340 and 380 nm with the emitted 505 nm light being detected by a photomultiplier. […] Changes of intracellular calcium were quantified as the percentage increase of the fluorescent ratio (determined at ˜505 nm) obtained by exciting the test cells alternatively at 340 nm (optimal for calcium bound dye) and 380 nm."}, "mammary epithelial cells": {"tested_on": "mammary epithelial cells", "experiment": "MTS cell viability/proliferation assay, mammary epithelial cells", "type": "cell-based, human", "conditions": "1-10 μM", "procedure": "Human mammary epithelial cells (catalogue number CC-2551; stain positive for cytokeratins 14, 18 and 19)\nThis was carried out using an MTS assay (reagents from Promega Corporation, Madison Wis., USA) which is a modification of the MTT assay (as described in Jacobson et al, 1994 EMBO J Vol 13 pp1899-1910). The assay depends on conversion of the MTS tetrazolium compound to a coloured formazan product in metabolically active cells; it is therefore an assay of viable cell number. A decline in values implies cell killing as long as cell disappearance by apoptosis in untreated cell populations is absent or negligible (as with most healthy primary cell populations).\nCells were seeded in the range 1.5×10^5-1.8×10^5 cells per ml of culture medium in 96 well microtitre plates and allowed to attach in a humidifed atmosphere of 5% CO2 in air at 37 deg C. Drugs were added 18-24 hours later and cell viability/proliferation measured at time intervals up to 48-72 hours post-drug addition when the experiment was terminated. […]\nCell viability was measured as follows: 20 μl of MTS solution (Promega) was added to wells and incubated at 37 deg C. for 3 hours during which time a coloured formazan product is generated in viable cells. […] Viable cell number was then measured by reading absorbance at 490 nm in a Dynex microtitre plate reader. […]"}, "phospholipase C": {"tested_on": "phospholipase C", "experiment": "Quantitative HPLC assay of inositol phosphates (IP3 levels) in MDA MB 468 cells", "type": "cell-based, human", "conditions": "[3H] inositol labelled cells", "excerpt": "The PH domain of PLC delta 1 has a higher affinity for the phosphoinositide IP3 compared to PIP2. IP3 is produced from PIP2 in response to activation of PLC. Since PIP2 is membrane-bound whereas IP3 is cytosolic, the activation of PLC can be visualised in living cells by the relocalisation of GFP-PH PLC delta 1 from membrane to cytosol. A proviso to this interpretation is that, in conditions where PIP2 levels decline relative to IP3, the net effect would be relocalisation of GFP-PH PLC delta 1 from membrane to cytosol. Thus, to exclude this possibility, quantitative phospholipid assays were performed. (In this analysis, cells were labelled with [^3H] inositol in inositol-free DMEM (In Vitrogen—Gibco) with dialysed FBS for 48 hours before exposure to sigma ligands. Cells were then lysed and subjected to quantitative HPLC assay). These assays confirmed that IP3 levels had risen in cells exposed to sigma antagonists (IP3 levels had risen to 240% and 166% of the level prior to provision of the test substance in response to IPAG and rimcazole respectively) but had not risen in cells exposed to sigma-1 or sigma-2 agonists. This confirmed activation of PLC by sigma antagonists."}}, "data": [{"smiles": "N=C(Nc1ccc(I)cc1)NC1C2CC3CC(C2)CC1C3", "note": "(stereo not drawn) [IPAG, 1-(4-iodophenyl)-3-(2-adamantyl)guanidine]", "values": [{"measurement": "% increase of cytosolic calcium", "setting": "MDA MB 468 cells; 1 μM, 100 μM extracellular calcium", "value": "40±14", "unit": "%"}, {"measurement": "% increase of cytosolic calcium", "setting": "MDA MB 468 cells; 1 μM, 1 mM extracellular calcium (FIG. 3a experiment)", "value": "157±10", "unit": "%"}, {"measurement": "% increase of cytosolic calcium (peak 340/380 nm fura-2 ratio)", "setting": "MDA MB 468 cells; 1 μM", "value": "54±7", "unit": "%"}, {"measurement": "% increase of cytosolic calcium", "setting": "MDA MB 468 cells; 1 μM, absence of extracellular calcium", "value": "1±0.4", "unit": "%"}, {"measurement": "% increase of cytosolic calcium (peak 340/380 nm fura-2 ratio)", "setting": "MDA MB 468 cells; 3 μM", "value": "112±8", "unit": "%"}, {"measurement": "% increase of cytosolic calcium", "setting": "MDA MB 468 cells; 10 μM, 100 μM extracellular calcium", "value": "237±12", "unit": "%"}, {"measurement": "time of decline of intracellular calcium to baseline", "setting": "MDA MB 468 cells; 10 μM, 0.1 mM extracellular calcium, MDA MB 468 cells", "value": "≤ 10", "unit": "min"}, {"measurement": "% increase of cytosolic calcium", "setting": "MDA MB 468 cells; 10 μM, 1 mM extracellular calcium (FIG. 3a experiment)", "value": "230±12", "unit": "%"}, {"measurement": "time calcium elevation remains close to peak levels", "setting": "MDA MB 468 cells; 10 μM, 1 mM extracellular calcium, MDA MB 468 cells", "value": "at least 30 minutes"}, {"measurement": "% increase of cytosolic calcium (peak 340/380 nm fura-2 ratio)", "setting": "MDA MB 468 cells; 10 μM", "value": "125±7", "unit": "%"}, {"measurement": "time to peak effect on cytosolic calcium", "setting": "MDA MB 468 cells; 10 μM, MDA MB 468 cells", "value": "≤ 5", "unit": "min"}, {"measurement": "% increase of cytosolic calcium", "setting": "MDA MB 468 cells; 10 μM, absence of extracellular calcium", "value": "4±2", "unit": "%"}, {"measurement": "effect on cytosolic calcium levels (in words)", "setting": "MDA MB 468 cells; MDA MB 468 cells, FIG. 2a: IPAG 1-10 μM, rimcazole 10-30 μM, (+)-SKF 10,047 10 μM, (+)-pentazocine 10-30 μM, ibogaine 10-50 μM", "value": "increase cytosolic calcium levels"}, {"measurement": "time by which calcium levels have returned to baseline", "setting": "MCF-7 cells", "value": "≤ 30", "unit": "min"}, {"measurement": "time to peak effect on cytosolic calcium", "setting": "MCF-7 cells", "value": "≤ 5", "unit": "min"}, {"measurement": "% increase of cytosolic calcium (peak 340/380 nm fura-2 ratio)", "setting": "[1]", "value": "20±2", "unit": "%"}, {"measurement": "Cytotoxicity", "setting": "mammary epithelial cells", "value": "not cytotoxic"}, {"measurement": "IP3 levels, % of the level prior to provision of the test substance", "setting": "phospholipase C", "value": 240, "unit": "%"}]}]}
